Legend:
[1] = molecular target: T1, CGRP receptor (SK-N-MC membrane) (Homo sapiens, UniProt O60894+Q16602); test: I125-CGRP binding displacement assay on purified SK-N-MC membrane
T1 construct: Purified SK-N-MC membrane was purchased from Perkin Elmer; purchased Perkin Elmer; host or cells: SK-N-MC membrane
Procedure, shortened: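 Displacement of I125-CGRP binding was measured by filtration and scintillation counting after 2 h room-temperature incubation with compound and SK-N-MC membranes (buffer pH 7.4, MgCl2, BSA, Tween). Percent displacement calculated against total binding and 1 uM cold CGRP nonspecific controls, then curve-fitted.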

[2] = molecular target: endogenous CGRP receptor (Homo sapiens, UniProt O60894+Q16602); test: CGRP functional antagonism using SK-N-MC-BLA (4C10), β-lactamase transcriptional reporter assay; type: cell-based; conditions: SK-N-MC (4C10) cells, inhibition of β-lactamase expression in the presence of 200 pM CGRP
endogenous CGRP receptor, sequence (Q16602 23-461): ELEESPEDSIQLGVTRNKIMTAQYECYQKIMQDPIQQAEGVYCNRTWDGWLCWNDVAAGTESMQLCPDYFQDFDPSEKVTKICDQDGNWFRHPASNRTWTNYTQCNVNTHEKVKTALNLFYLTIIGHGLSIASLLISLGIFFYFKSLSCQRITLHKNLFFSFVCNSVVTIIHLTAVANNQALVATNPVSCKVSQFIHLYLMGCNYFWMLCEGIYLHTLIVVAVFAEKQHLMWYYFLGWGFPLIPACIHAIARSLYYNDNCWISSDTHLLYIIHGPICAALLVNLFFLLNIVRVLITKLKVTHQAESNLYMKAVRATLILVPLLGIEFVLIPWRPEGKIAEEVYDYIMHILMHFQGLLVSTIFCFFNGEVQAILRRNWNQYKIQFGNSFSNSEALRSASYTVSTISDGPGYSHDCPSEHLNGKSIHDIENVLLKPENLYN
endogenous CGRP receptor, sequence (O60894 27-148): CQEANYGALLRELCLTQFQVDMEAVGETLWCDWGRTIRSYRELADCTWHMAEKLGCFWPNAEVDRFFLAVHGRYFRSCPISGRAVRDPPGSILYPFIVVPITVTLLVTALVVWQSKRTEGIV

T1 sequence (Q16602 23-461): as the sequence (Q16602 23-461) above
T1 sequence (O60894 27-148): as the sequence (O60894 27-148) above

Row | SMILES | Ki [1] [µM] | IC50 [2] [µM]
1 | CC(C)(C)N1CCN(c2c(F)cccc2[C@H]2S[C@@H](CC(=O)N3CCC(N4CCc5ccccc5NC4=O)CC3)C(=O)N2CC2CCCCC2)CC1 [Compound 514] | < 1 | < 1
2 | CC(C)(C)N1CCN(c2c(F)cccc2C2S[C@@H](CC(=O)N3CCC(N4CCc5ccccc5NC4=O)CC3)C(=O)N2CC2CCCCC2)CC1 (stereo partly shown) [Compound 515] | < 1 | < 1
3 | CC(C)(C)N1CCN(c2c(F)cccc2C2S[C@@H](CC(=O)N3CCC(n4c(=O)[nH]c5ncccc54)CC3)C(=O)N2CC2CCCCC2)CC1 (stereo partly shown) [Compound 516] | < 1 | < 1
4 | CN(C)CCNc1c(F)cccc1C1S[C@@H](CC(=O)N2CCC(n3c(=O)[nH]c4ncccc43)CC2)C(=O)N1CCC(C)(C)C (stereo partly drawn) [Compound 518, 1-(1-(2-((5S)-2-(2-(2-(Dimethylamino)ethylamino)-3-fluorophenyl)-3-(3,3-dimethylbutyl)-4-oxothiazolidin-5-yl)acetyl)piperidin-4-yl)-1H-imidazo[4,5-b]pyridin-2(3H)-one] | < 1 | < 1
5 | CC(C)CCN1CCC(c2ncc(C3S[C@@H](CC(=O)N4CCC(N5CCc6ccccc6NC5=O)CC4)C(=O)N3CCC(C)(C)C)s2)CC1 (stereo partly shown) [Compound 519] | < 1 | < 1
6 | CC(C)(C)CCN1C(=O)[C@H](CC(=O)N2CCC(N3CCc4ccccc4NC3=O)CC2)SC1c1cccc(F)c1NCCN1CCCCC1 (stereo partly drawn) [Compound 520, 3-(1-(2-((5S)-2-(2-(2-(Piperidin-1-yl)ethylamino)-3-fluorophenyl)-3-(3,3-dimethylbutyl)-4-oxothiazolidin-5-yl)acetyl)piperidin-4-yl)-4,5-dihydro-1H-benzo[d][1,3]diazepin-2(3H)-one] | < 1 | < 1
7 | CCCCN1C(=O)[C@H](CC(=O)N2CCC(N3CCc4ccccc4NC3=O)CC2)SC1c1cccc(F)c1N1CCN(C(C)(C)C)CC1 (stereo partly shown) [Compound 521] | < 1 | < 1
8 | CCCCN1C(=O)[C@H](CC(=O)N2CCC(N3CCc4ccccc4NC3=O)CC2)SC1c1cccc(F)c1N1CCN(C(C)(C)C)CC1 (stereo partly shown) [Compound 522] | < 1 | < 1
9 | CC(C)(C)N1CCN(c2c(F)cccc2[C@H]2S[C@@H](CC(=O)N3CCC(N4CCc5ccccc5NC4=O)CC3)C(=O)N2CC2CCOCC2)CC1 [Compound 523] | < 1 | < 1
10 | CC(C)(C)N1CCN(c2c(F)cccc2[C@@H]2S[C@@H](CC(=O)N3CCC(N4CCc5ccccc5NC4=O)CC3)C(=O)N2CC2CCOCC2)CC1 [Compound 524] | < 1 | < 1
11 | CC(C)(C)N1CCN(c2c(F)cccc2C2S[C@@H](CC(=O)N3CCC(n4c(=O)[nH]c5ncccc54)CC3)C(=O)N2CC2CCOCC2)CC1 (stereo partly shown) [Compound 525] | < 1 | < 1
12 | CC(C)OCCN1C(=O)[C@H](CC(=O)N2CCC(N3CCc4ccccc4NC3=O)CC2)SC1c1cccc(F)c1N1CCN(C(C)(C)C)CC1 (stereo partly shown) [Compound 526] | < 1 | < 1
13 | CC(C)(C)CCN1C(=O)[C@H](CC(=O)N2CCC(n3c(=O)[nH]c4ncccc43)CC2)SC1c1ccccc1N1CCNCC1=O (stereo partly shown) [Compound 527] | < 1 | < 1
14 | CC(C)(C)CCN1C(=O)[C@H](CC(=O)N2CCC(n3c(=O)[nH]c4ncccc43)CC2)SC1c1ccccc1C1CCNCC1 (stereo partly shown) [Compound 528] | < 1 | < 1
15 | CC(C)OCCN1C(=O)[C@H](CC(=O)N2CCC(N3CCc4ccccc4NC3=O)CC2)SC1c1cccc(F)c1N1CCN(C(C)(C)C)CC1 (stereo partly shown) [Compound 529] | < 1 | < 1
16 | CC(C)OCCN1C(=O)[C@H](CC(=O)N2CCC(n3c(=O)[nH]c4ncccc43)CC2)SC1c1cccc(F)c1N1CCN(C(C)(C)C)CC1 (stereo partly shown) [Compound 530] | < 1 | < 1
17 | CC(C)OCCN1C(=O)[C@H](CC(=O)N2CCC(n3c(=O)[nH]c4ncccc43)CC2)SC1c1cccc(F)c1N1CCN(C(C)(C)C)CC1 (stereo partly shown) [Compound 531] | < 1 | < 1
18 | CC(C)(C)CCN1C(=O)[C@H](CC(=O)N2CCC(n3c(=O)[nH]c4ncccc43)CC2)SC1c1cccc(F)c1NCCN1CCCCC1 (stereo partly drawn) [Compound 532, 1-(1-(2-((5S)-2-(2-(2-(Piperidin-1-yl)ethylamino)-3-fluorophenyl)-3-(3,3-dimethylbutyl)-4-oxothiazolidin-5-yl)acetyl)piperidin-4-yl)-1H-imidazo[4,5-b]pyridin-2(3H)-one] | < 1 | < 1
19 | COCCN1C(=O)[C@H](CC(=O)N2CCC(N3CCc4ccccc4NC3=O)CC2)SC1c1cccc(F)c1N1CCN(C(C)(C)C)CC1 (stereo partly shown) [Compound 533] | < 1 | < 1
20 | COCCN1C(=O)[C@H](CC(=O)N2CCC(N3CCc4ccccc4NC3=O)CC2)SC1c1cccc(F)c1N1CCN(C(C)(C)C)CC1 (stereo partly shown) [Compound 534] | < 1 | < 1
21 | COCCN1C(=O)[C@H](CC(=O)N2CCC(n3c(=O)[nH]c4ncccc43)CC2)SC1c1cccc(F)c1N1CCN(C(C)(C)C)CC1 (stereo partly shown) [Compound 535] | < 1 | < 1

Further lines, results first:

Row | Ki [1] [µM] | IC50 [2] [µM] | SMILES
22 | < 1 | < 1 | CCCN1C(=O)[C@H](CC(=O)N2CCC(n3c(=O)[nH]c4ncccc43)CC2)SC1c1cccc(F)c1N1CCN(C(C)(C)C)CC1 (stereo partly shown) [Compound 538]
23 | < 1 | < 1 | CC(C)(C)N1CCN(c2c(F)cccc2C2S[C@@H](CC(=O)N3CCC(N4CCc5ccccc5NC4=O)CC3)C(=O)N2Cc2ccccc2)CC1 (stereo partly shown) [Compound 539]
24 | < 1 | < 1 | CC(C)(C)N1CCN(c2c(F)cccc2C2S[C@@H](CC(=O)N3CCC(n4c(=O)[nH]c5ncccc54)CC3)C(=O)N2Cc2ccccc2)CC1 (stereo partly shown) [Compound 540]
25 | < 1 | < 1 | CC(C)CN1CCN(c2ccccc2[C@H]2S[C@@H](CC(=O)N3CCC(N4CCc5ccccc5NC4=O)CC3)C(=O)N2CCC(C)(C)C)C(=O)C1 [Compound 541]
26 | < 1 | < 1 | CC(C)(C)CCN1C(=O)[C@H](CC(=O)N2CCC(N3CCc4ccccc4NC3=O)CC2)SC1c1cccc(F)c1N1CCN(C2CCC2)CC1 (stereo partly shown) [Compound 542]
27 | < 1 | < 1 | CC(C)(C)CCN1C(=O)[C@H](CC(=O)N2CCC(N3CCc4ccccc4NC3=O)CC2)SC1c1cccc(F)c1N1CCN(C2CCC2)CC1 (stereo partly shown) [Compound 543]
28 | < 1 | < 1 | CC(C)CCN1C(=O)[C@H](CC(=O)N2CCC(N3CCc4ccccc4NC3=O)CC2)SC1c1cccc(F)c1N1CCN(C(C)(C)C)CC1 (stereo partly shown) [Compound 544]
29 | < 1 | < 1 | CC(C)CCN1C(=O)[C@H](CC(=O)N2CCC(N3CCc4ccccc4NC3=O)CC2)SC1c1cccc(F)c1N1CCN(C(C)(C)C)CC1 (stereo partly shown) [Compound 545]
30 | < 1 | < 1 | CC(C)(C)N1CCN(c2c(F)cccc2[C@H]2S[C@@H](CC(=O)N3CCC(N4CCc5ccccc5NC4=O)CC3)C(=O)N2Cc2ccccc2)CC1 [Compound 547]
31 | < 1 | < 1 | CC(C)(C)N1CCN(c2c(F)cccc2[C@@H]2S[C@@H](CC(=O)N3CCC(N4CCc5ccccc5NC4=O)CC3)C(=O)N2Cc2ccccc2)CC1 [Compound 548]
32 | < 1 | 1 to 5 | CC(C)(C)CCN1C(=O)[C@H](CC(=O)N2CCC(n3c(=O)[nH]c4ncccc43)CC2)SC1c1cccc(F)c1N1CCN(C(=O)OC(C)(C)C)CC1 (stereo partly shown) [Compound 549]

Source: patent US8163737B2 (Vertex Pharmaceuticals Incorporated, priority 2006, dated 2012)
